Experimental data: patent US20250188102A1, “TRIAZINE COMPOUND, INTERMEDIATE THEREOF, PREPARATION METHOD THEREFOR AND USE THEREOF” (priority 2022, published 2025)
Where two headings read alike, the source gives them in different places.

Assays:
[1] = in vitro; type: cell-based; settings: human
Description: (§1) Nine cell lines originated from different human tissues (Table 2) are selected to evaluate the cytotoxicity of the tested compounds. Sorafenib or Taxol are used as cytotoxic control compounds. The cells and compounds are added to the 96-well test plate. Cells are cultured in culture medium containing 10% FBS, 5% CO2 and 37° C. for 3 days, and then cell viability was detected by CellTiter-Glo reagent. The raw data are used for compound cytotoxicity calculations. The dose-response curves of the compounds are analyzed by GraphPad Prism software and CC50 values are calculated. The compound will be tested at 8 concentration points, 3-fold series dilution, and 3-compound pores.

[2] = in vitro; type: cell-based; settings: human; remark: listed apart in the source
Description: as §1

[3] = in vitro; type: cell-based; settings: human; remark: listed apart in the source
Description: as §1

[4] = system: Huh7 cells
[5] = in vitro; type: cell-based; settings: human; remark: listed apart in the source
Description: as §1

[6] = in vitro; type: cell-based; settings: human; remark: listed apart in the source
Description: as §1

[7] = in vitro; type: cell-based; settings: human; remark: listed apart in the source
Description: as §1

[8] = in vitro; type: cell-based; settings: human; remark: listed apart in the source
Description: as §1

[9] = in vivo; settings: male, Sprague-Dawley, rat; for AUC(0-inf): AUC0-∞; for half-life: T1/2
[10] = in vitro; type: cell-based; settings: human; remark: listed apart in the source
Description: as §1

[11] = biological target: MERS Mpro protease (Middle East respiratory syndrome-related coronavirus (isolate United Kingdom/H123990006/2012) (MERS-CoV) (Betacoronavirus England 1), UniProt K9N7C7); assay: biochemical
Sequence of MERS Mpro protease (K9N7C7 3248-3553 limits assumed): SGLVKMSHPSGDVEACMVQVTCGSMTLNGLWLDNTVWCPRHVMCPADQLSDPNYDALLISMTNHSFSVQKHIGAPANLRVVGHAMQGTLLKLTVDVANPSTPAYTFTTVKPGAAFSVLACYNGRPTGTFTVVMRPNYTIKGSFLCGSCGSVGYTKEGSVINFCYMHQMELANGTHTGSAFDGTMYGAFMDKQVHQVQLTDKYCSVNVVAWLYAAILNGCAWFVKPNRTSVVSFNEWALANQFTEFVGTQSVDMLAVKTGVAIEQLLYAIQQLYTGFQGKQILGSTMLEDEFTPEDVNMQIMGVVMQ

[12] = in vitro; type: cell-based; settings: human; remark: listed apart in the source
Description: as §1

[13] = rat
[14] = in vitro; type: in vitro ADME; settings: rat, hepatocytes
[15] = in vitro; type: in vitro ADME, people; settings: human, hepatocytes
[16] = biological target: HKU1 Mpro protease (Human coronavirus HKU1 (isolate N1) (HCoV-HKU1), UniProt P0C6X2); type: biochemical; settings: read-out: Enzymatic Determination of IC50 of compound by Mpro, HKU1
Sequence of HKU1 Mpro protease (P0C6X2 3335-3637 limits assumed): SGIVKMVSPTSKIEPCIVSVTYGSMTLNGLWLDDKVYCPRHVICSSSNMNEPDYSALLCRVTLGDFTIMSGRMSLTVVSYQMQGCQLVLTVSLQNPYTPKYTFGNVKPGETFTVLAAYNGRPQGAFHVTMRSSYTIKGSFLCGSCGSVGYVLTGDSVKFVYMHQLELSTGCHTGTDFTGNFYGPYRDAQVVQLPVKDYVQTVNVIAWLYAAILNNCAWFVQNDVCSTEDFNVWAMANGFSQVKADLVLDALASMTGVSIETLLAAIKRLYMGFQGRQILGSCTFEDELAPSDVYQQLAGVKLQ

[17] = biological target: NL63 Mpro protease (Human coronavirus NL63 (HCoV-NL63), UniProt P0C6X5); assay: Mpro enzymatic assay, other human coronaviruses: NL63; type: biochemical; settings: read-out: Enzymatic Determination of IC50 of compound by Mpro, NL63
Sequence of NL63 Mpro protease (P0C6X5 2940-3242 limits assumed): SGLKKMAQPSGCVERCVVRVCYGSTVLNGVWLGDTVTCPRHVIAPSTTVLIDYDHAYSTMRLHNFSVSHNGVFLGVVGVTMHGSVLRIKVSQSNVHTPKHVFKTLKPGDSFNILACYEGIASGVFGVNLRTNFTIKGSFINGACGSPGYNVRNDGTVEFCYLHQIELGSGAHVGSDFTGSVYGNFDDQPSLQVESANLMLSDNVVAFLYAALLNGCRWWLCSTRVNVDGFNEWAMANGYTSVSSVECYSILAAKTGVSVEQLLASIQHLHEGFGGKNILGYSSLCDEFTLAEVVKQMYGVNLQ

[18] = stated before the oral figures (intravenous per Table 11)

Cn1cnc(Cn2c(=O)[nH]/c(=N\c3cc4nn(C)cc4cc3Cl)n(Cc3cc(F)c(F)cc3F)c2=O)n1 [CVL201]
CC50 [1]: > 100 µM | CC50 [2]: > 100 µM | CC50 [3]: > 100 µM | CC50 [4]: >1 microns | CC50 [5]: > 100 µM | CC50 [6]: > 100 µM | CC50 [7]: > 100 µM | CC50 [8]: > 100 µM | AUC(0-inf) ([9]; po, 5 mg/kg): 53900 ng·h/mL | Cmax ([9]; po, 5 mg/kg): 4520 ng/mL | half-life ([9]; po, 5 mg/kg): 2.89 h | Tmax ([9]; po, 5 mg/kg): 4.67 h | CC50 [10]: > 100 µM | IC50 [11]: 4960 µM | CC50 [12]: > 100 µM

[2H]C([2H])([2H])n1cnc(Cn2c(=O)[nH]/c(=N\c3cc4cn(C)nc4cc3Cl)n(Cc3cc(F)c(F)cc3F)c2=O)n1 [Compound I-2]
AUC compared with S-217622 ([13]; after oral administration): 144% | Cmax compared with S-217622 ([13]; after oral administration): 145% | AUC compared with S-217622 [13, 18]: 198% | Cmax compared with S-217622 [13, 18]: 125% | T1/2 compared with S-217622 [13, 18]: 124% | half-life at 0.5 μM [14]: 89 h | AUC(0-inf) ([9]; iv, 0.5 mg/kg, SD rat): 7940 ng·h/mL | Cmax ([9]; iv, 0.5 mg/kg, SD rat): 2880 ng/mL | half-life ([9]; iv, 0.5 mg/kg): 3.36 h | Tmax ([9]; iv, 0.5 mg/kg, SD rat): 0.03 h | AUC(0-inf) ([9]; po, 5 mg/kg, SD rat): 65300 ng·h/mL | Cmax ([9]; po, 5 mg/kg, SD rat): 6020 ng/mL | half-life ([9]; po, 5 mg/kg): 3.04 h | Tmax ([9]; po, 5 mg/kg, SD rat): 2.33 h

[2H]C([2H])(c1ncn(C)n1)n1c(=O)nc(Nc2cc3cn(C)nc3cc2Cl)n(Cc2cc(F)c(F)cc2F)c1=O [Compound I-3]
half-life at 0.5 μM [14]: 8.28 h | half-life at 0.5 μM [15]: 204 h

[2H]C([2H])([2H])n1cc2cc(Nc3nc(=O)n(Cc4ncn(C)n4)c(=O)n3Cc3cc(F)c(F)cc3F)c(Cl)cc2n1 [Compound I-5]
half-life at 0.5 μM [15]: 29.9 h

[2H]C([2H])([2H])n1cnc(Cn2c(=O)n(COC(=O)OC(C)C)/c(=N\c3cc4cn(C)nc4cc3Cl)n(Cc3cc(F)c(F)cc3F)c2=O)n1 [Compound I-19]
AUC(0-inf) ([9]; po, 5 mg/kg, SD rat): 70900 ng·h/mL | Cmax ([9]; po, 5 mg/kg, SD rat): 6180 ng/mL | half-life ([9]; po, 5 mg/kg): 2.91 h | Tmax ([9]; po, 5 mg/kg, SD rat): 3.33 h

[2H]C([2H])([2H])n1cnc(Cn2c(=O)nc(Nc3cc4cn(C([2H])([2H])[2H])nc4cc3Cl)n(Cc3cc(F)c(F)cc3F)c2=O)n1 [Compound I-24]
AUC(0-inf) ([9]; po, 5 mg/kg, SD rat): 58300 ng·h/mL | Cmax ([9]; po, 5 mg/kg, SD rat): 5210 ng/mL | half-life ([9]; po, 5 mg/kg): 3.51 h | Tmax ([9]; po, 5 mg/kg, SD rat): 4 h

O=c1nc(NO)ccn1[C@@H]1O[C@H](CO)[C@@H](O)[C@H]1O [EIDD-1931]
CC50 [4]: >10 microns

CC(C)C[C@H](NC(=O)OCc1ccccc1)C(=O)N[C@@H](CC1CCNC1=O)C(O)S(=O)(=O)O (stereo partly shown) [GC-376]
IC50 [16]: 0.022 µM | IC50 [17]: 0.107 µM
